Source: ChEMBL document CHEMBL1128336, “Synthetic routes to 4-amino-3-carboxy-beta-carboline derivatives: incidental formation of novel furo[3,4-c]-beta-carbolin-2-ones displaying high affinities for the benzodiazepine receptor” (J Med Chem, 1995)

Target: GABA-A receptor; anion channel
Assay: In vitro displacement of [3H]flunitrazepam from GABA-A central benzodiazepine receptor of rat cerebral cortex membranes
Type: cell membranes, Membrane

| SMILES | IC50 |
| --- | --- |
| CCOC1OC(=O)c2[nH]cc3nc4ccccc4c-3c21 (stereo not drawn) | 20 nM |
| O=C1OC(=O)c2c1[nH]cc1nc3ccccc3c2-1 | 150 nM |
| O=C1OC(O)c2c1[nH]cc1nc3ccccc3c2-1 (stereo not drawn) | 47 nM |
| COC(=O)c1cc2c(cn1)[nH]c1ccccc12 [BETA-CCM] | 2 nM |
| CC1OC(=O)c2[nH]cc3nc4ccccc4c-3c21 (stereo not drawn) | 20 nM |
| COC1OC(=O)c2[nH]cc3nc4ccccc4c-3c21 (stereo not drawn) | 12 nM |
| O=C1OC(CO)c2c1[nH]cc1nc3ccccc3c2-1 (stereo not drawn) | 0.2 nM |
| CCOC(=O)CN1C(=O)c2[nH]cc3nc4ccccc4c-3c2C1O (stereo not drawn) | 70 nM |
